Assay [1] concerns the target T1, HCV NS3/4A protease complex, BMS strain (genotype 1a) (UniProt P27958, species not given/STRAIN_BMS).
T1 construct: "DNA encoding the recombinant HCV NS3/4A protease complex (amino acids 1027 to 1711) for these strains" (said of H77 and J4L6S, not expressly of BMS); given for the H77/J4L6S constructs only
Briefly: FRET peptide assay to monitor HCV NS3/4A proteolytic activity (BMS strain). It is filed as biochemical. The settings on record: NS3/4A BMS strain, read-out: HCV Protease (IC50). An excerpt:
HCV NS3 protease complexes, derived from the BMS strain, H77 strain or J4L6S strain, were generated, as described below. These purified recombinant proteins were generated for use in a homogeneous assay (see below) to provide an indication of how effective compounds of the present disclosure would be in inhibiting HCV NS3 proteolytic activity.
Serum from an HCV-infected patient was obtained from Dr. T. Wright, San Francisco Hospital. An engineered full-length cDNA (compliment deoxyribonucleic acid) template of the HCV genome (BMS strain) was constructed from DNA fragments obtained by reverse transcription-PCR(RT-PCR) of serum RNA (ribonucleic acid) and using primers selected on the basis of homology between other genotype la strains. From the determination of the entire genome sequence, a genotype la was assigned to the HCV isolate according to the classification of Simmonds et al. (See P Simmonds, K A Rose, S Graham, S W Chan, F McOmish, B C Dow, E A Follett, P L Yap and H Marsden, J. Clin. Microbiol., 31(6), 1493-1503 (1993)). […] The infectious clones, H77 (1a genotype) and J4L6S (1b genotype) were obtained from R. Purcell (NIH) and the sequences are published in Genbank (AAB67036, see Yanagi, M., Purcell, R. H., Emerson, S. U. and Bukh, J. Proc. Natl. Acad. Sci. U.S.A. 94(16), 8738-8743 (1997); AF054247, see Yanagi, M., St Claire, M., Shapiro, M., Emerson, S. U., Purcell, R. H. and Bukh, J, Virology 244 (1), 161-172. (1998)).
The H77 and J4L6S strains were used for production of recombinant NS3/4A protease complexes. DNA encoding the recombinant HCV NS3/4A protease complex (amino acids 1027 to 1711) for these strains were manipulated as described by P. Gallinari et al. (see Gallinari P, Paolini C, Brennan D, Nardi C, Steinkuhler C, De Francesco R. Biochemistry. 38(17):5620-32, (1999)). Briefly, a three-lysine solubilizing tail was added at the 3′-end of the NS4A coding region. The cysteine in the P1 position of the NS4A-NS4B cleavage site (amino acid 1711) was changed to a glycine to avoid the proteolytic cleavage of the lysine tag. Furthermore, a cysteine to serine mutation was introduced by PCR at amino acid position 1454 to prevent the autolytic cleavage in the NS3 helicase domain. The variant DNA fragment was cloned in the pET21b bacterial expression vector (Novagen) and the NS3/4A complex was expressed in Escherichia. coli strain BL21 (DE3) (Invitrogen) following the protocol described by P. Gallinari et al. (see Gallinari P, Brennan D, Nardi C, Brunetti M, Tomei L, Steinkuhler C, De Francesco R., J. Virol. 72(8):6758-69 (1998)) with modifications. Briefly, the NS3/4A protease complex expression was induced with 0.5 millimolar (mM) Isopropyl β-D-1-thiogalactopyranoside (IPTG) for 22 hours (h) at 20° C. A typical fermentation (1 Liter (L)) yielded approximately 10 grams (g) of wet cell paste. The cells were resuspended in lysis buffer (10 mL/g) consisting of 25 mM N-(2-Hydroxyethyl)piperazine-N′-(2-Ethane Sulfonic acid) (HEPES), pH 7.5, 20% glycerol, 500 mM Sodium Chloride (NaCl), 0.5% Triton X-100, 1 microgram/milliliter (“μg/mL”) lysozyme, 5 mM Magnesium Chloride (MgCl2), 1 μg/ml DnaseI, 5 mM β-Mercaptoethanol (βME), Protease inhibitor-Ethylenediamine Tetraacetic acid (EDTA) free (Roche), homogenized and incubated for 20 minutes (min) at 4° C. The homogenate was sonicated and clarified by ultra-centrifugation at 235000 g for 1 hour (h) at 4° C. Imidazole was added to the supernatant to a final concentration of 15 mM and the pH adjusted to 8.0. The crude protein extract was loaded on a Nickel-Nitrilotriacetic acid (Ni-NTA) column pre-equilibrated with buffer B (25 mM HEPES, pH 8.0, 20% glycerol, 500 mM NaCl, 0.5% Triton X-100, 15 mM imidazole, 5 mM βME). The sample was loaded at a flow rate of 1 mL/min. The column was washed with 15 column volumes of buffer C (same as buffer B except with 0.2% Triton X-100). The protein was eluted with 5 column volumes of buffer D (same as buffer C except with 200 mM Imidazole). […]

The test system of assay [2] is HCV replicon (strain 1b) in HUH-7 cells. Briefly: HCV replicon FRET assay. It is filed as cell-based. Particulars: Hepatitis C virus. An excerpt:
An HCV replicon whole cell system was established as described by Lohmann V, Korner F, Koch J, Herian U, Theilmann L, Bartenschlager R., Science 285(5424): 110-3 (1999). This system enabled us to evaluate the effects of our HCV Protease compounds on HCV RNA replication. Briefly, using the HCV strain 1b sequence described in the Lohmann paper (Assession number: AJ238799), an HCV cDNA was synthesized by Operon Technologies, Inc. (Alameda, Calif.), and the full-length replicon was then assembled in plasmid pGem9zf(+) (Promega, Madison, Wis.) using standard molecular biology techniques. The replicon consists of (i) the HCV 5′ UTR fused to the first 12 amino acids of the capsid protein, (ii) the neomycin phosphotransferase gene (neo), (iii) the IRES from encephalomyocarditis virus (EMCV), and (iv) HCV NS3 to NS5B genes and the HCV 3′ UTR. Plasmid DNAs were linearized with ScaI and RNA transcripts were synthesized in vitro using the T7 MegaScript transcription kit (Ambion, Austin, Tex.) according to manufacturer's directions. In vitro transcripts of the cDNA were transfected into the human hepatoma cell line, HUH-7. […] Resulting cell lines were characterized for positive and negative strand RNA production and protein production over time.
The HCV replicon FRET assay was developed to monitor the inhibitory effects of compounds described in the disclosure on HCV viral replication. HUH-7 cells, constitutively expressing the HCV replicon, were grown in Dulbecco's Modified Eagle Media (DMEM) (Gibco-BRL) containing 10% Fetal calf serum (FCS) (Sigma) and 1 mg/ml G418 (Gibco-BRL). Cells were seeded the night before (1.5×10^4 cells/well) in 96-well tissue-culture sterile plates. Compound and no compound controls were prepared in DMEM containing 4% FCS, 1:100 Penicillin/Streptomysin (Gibco-BRL), 1:100 L-glutamine and 5% DMSO in the dilution plate (0.5% DMSO final concentration in the assay). Compound/DMSO mixes were added to the cells and incubated for 4 days at 37° C. After 4 days, cells were first assessed for cytotoxicity using alamar Blue (Trek Diagnotstic Systems) for a CC50 reading. The toxicity of compound (CC50) was determined by adding 1/10th volume of alamar Blue to the media incubating the cells. After 4 h, the fluorescence signal from each well was read, with an excitation wavelength at 530 nm and an emission wavelength of 580 nm, using the Cytofluor Series 4000 (Perspective Biosystems). Plates were then rinsed thoroughly with Phosphate-Buffered Saline (PBS) (3 times 150 μl). The cells were lysed with 25 μl of a lysis assay reagent containing an HCV protease substrate (5× cell Luciferase cell culture lysis reagent (Promega #E153A) diluted to 1× with distilled water, NaCl added to 150 mM final, the FRET peptide substrate (as described for the enzyme assay above) diluted to 10 μM final from a 2 mM stock in 100% DMSO. The plate was then placed into the Cytofluor 4000 instrument which had been set to 340 nm excitation/490 nm emission, automatic mode for 21 cycles and the plate read in a kinetic mode. EC50 determinations were carried out as described for the IC50 determinations.
(In general: In antiviral work, replicon cells carry a viral genome segment that copies itself.)

Setting [3] is: activity range symbols of Table 2.
Where [4] appears, read: Huh-7, read-out: HCV Pro Replicon (EC50).

Where two headings read alike, the source gives them in different places.

T1 sequence (P27958 1027-1657, stated change not applied, one chain of several): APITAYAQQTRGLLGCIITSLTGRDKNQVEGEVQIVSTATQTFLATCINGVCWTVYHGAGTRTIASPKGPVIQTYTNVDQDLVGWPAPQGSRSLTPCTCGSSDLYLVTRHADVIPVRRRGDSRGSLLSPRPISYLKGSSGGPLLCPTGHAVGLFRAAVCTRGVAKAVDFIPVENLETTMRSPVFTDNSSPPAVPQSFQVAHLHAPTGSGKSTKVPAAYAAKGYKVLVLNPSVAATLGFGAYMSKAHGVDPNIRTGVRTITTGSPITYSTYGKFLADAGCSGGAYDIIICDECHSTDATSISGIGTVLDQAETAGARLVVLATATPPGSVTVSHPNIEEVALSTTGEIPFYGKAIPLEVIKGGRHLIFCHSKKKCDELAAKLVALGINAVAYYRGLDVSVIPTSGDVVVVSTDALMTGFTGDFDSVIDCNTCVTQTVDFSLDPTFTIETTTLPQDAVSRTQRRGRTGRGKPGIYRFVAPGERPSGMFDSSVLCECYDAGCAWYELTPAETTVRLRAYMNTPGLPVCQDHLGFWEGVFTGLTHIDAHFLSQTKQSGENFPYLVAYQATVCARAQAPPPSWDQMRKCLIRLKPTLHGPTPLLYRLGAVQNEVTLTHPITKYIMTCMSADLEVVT

On to `C=C[C@@H]1C[C@]1(NC(=O)[C@@H]1C[C@@](OC)(c2ccc(-c3ccccc3)cc2)CN1C(=O)[C@@H](NC(=O)OC(C)(C)C)C(C)(C)C)C(=O)NS(=O)(=O)C1CC1` [Cmpd 106, tert-butyl (S)-1-((2S,4R)-4-(biphenyl-4-yl)-2-((1R,2S)-1-(cyclopropylsulfonylcarbamoyl)-2-vinylcyclopropylcarbamoyl)-4-methoxypyrrolidin-1-yl)-3,3-dimethyl-1-oxobutan-2-ylcarbamate], for which, in assay [1] (numeric cells of Table 2), the IC50 was found to be 1 nM. Besides, in assay [2] (Huh-7, HCV replicon, numeric cells of Table 2, read-out: HCV Pro Replicon (EC50)), the EC50 was 11 nM. With `C=CCCCCC[C@H](NC(=O)OC(C)(C)C)C(=O)N1C[C@](OC)(c2ccc(-c3ccccc3)cc2)C[C@H]1C(=O)N[C@]1(C(=O)NS(=O)(=O)C2CC2)C[C@H]1C=C` [Cmpd 107], the IC50 in assay [1] (setting [3]) was 50 to 500 nM. Moreover, the EC50 in assay [2] (setting [4]) is > 500 nM. The corresponding values for `C=C[C@@H]1C[C@]1(NC(=O)[C@@H]1C[C@@](OCc2ccccc2)(c2ccc(-c3ccccc3)cc2)CN1C(=O)[C@@H](NC(=O)OC(C)(C)C)C(C)(C)C)C(=O)NS(=O)(=O)C1CC1` [Cmpd 108] are 1 to 50 nM and 1 to 50 nM. The matching figures for `COC1(c2ccc(-c3ccccc3)cc2)CC(C(=O)NC2(C(=O)NS(=O)(=O)C3CC3)CC2C(F)F)N(C(=O)C(NC(=O)OC(C)(C)C)C(C)(C)C)C1` (stereo not shown) [Cmpd 109]: 1 to 50 nM and 50 to 500 nM. The corresponding values for `CC[C@@H]1C[C@]1(NC(=O)[C@@H]1C[C@@](OC)(c2ccc(-c3ccccc3)cc2)CN1C(=O)[C@@H](NC(=O)OC(C)(C)C)C(C)(C)C)C(=O)NS(=O)(=O)C1CC1` [Cmpd 110] are 1 to 50 nM and 50 to 500 nM.

Consider `C=C[C@@H]1C[C@]1(NC(=O)[C@@H]1C[C@@](OC)(c2ccc(-c3ccccc3)cc2)CN1C(=O)[C@@H](NC(=O)OC(C)(C)C(F)(F)F)C(C)(C)C)C(=O)NS(=O)(=O)C1CC1` [Cmpd 200, {(S)-1-[(2S,4R)-4-Biphenyl-4-yl-2-((S)-(1R,2S)-1-cyclopropanesulfonylaminocarbonyl-2-vinyl-cyclopropylcarbamoyl)-4-methoxy-pyrrolidine-1-carbonyl]-2,2-dimethyl-propyl}-carbamic acid 2,2,2-trifluoro-1,1-dimethyl-ethyl ester], for which the IC50 in assay [1] (setting [3]) lay in the range of 1 to 50 nM. Moreover, the EC50 in assay [2] (setting [4]) was in the range of 1 to 50 nM. As for `C=C[C@@H]1C[C@]1(NC(=O)[C@@H]1C[C@@](OC)(c2ccc(-c3ccccc3)cc2)CN1C(=O)[C@@H](NC(=O)OC(C)(C)C)C(C)C)C(=O)NS(=O)(=O)C1CC1` [Cmpd 201, {(S)-1-[(2S,4R)-4-Biphenyl-4-yl-2-((S)-(1R,2S)-1-cyclopropanesulfonylaminocarbonyl-2-vinyl-cyclopropylcarbamoyl)-4-methoxy-pyrrolidine-1-carbonyl]-2-methyl-propyl}-carbamic acid tert-butyl ester], the IC50 in assay [1] (setting [3]) lay within 1 to 50 nM. In addition, the concentration giving a half-maximal response (EC50) in assay [2] (setting [4]) fell in the range of 50 to 500 nM.

Consider `C=C[C@@H]1C[C@]1(NC(=O)[C@@H]1C[C@@](OC)(c2ccc(-c3ccccc3)cc2)CN1C(=O)[C@@H](NC(=O)OC(C)(C)C)C(C)CC)C(=O)NS(=O)(=O)C1CC1` (stereo partly drawn) [Cmpd 202, {(S)-1-[(2S,4R)-4-Biphenyl-4-yl-2-((S)-(1R,2S)-1-cyclopropanesulfonylaminocarbonyl-2-vinyl-cyclopropylcarbamoyl)-4-methoxy-pyrrolidine-1-carbonyl]-2-methyl-butyl}-carbamic acid tert-butyl ester], for which the IC50 in assay [1] (setting [3]) is 1 to 50 nM. Further, the half-maximal effective concentration (EC50) in assay [2] (setting [4]) was 50 to 500 nM.

In the case of `C=C[C@@H]1C[C@]1(NC(=O)[C@@H]1C[C@@](OC)(c2ccc(-c3ccccc3)cc2)CN1C(=O)[C@H](CC(C)C)NC(=O)OC(C)(C)C)C(=O)NS(=O)(=O)C1CC1` [Cmpd 203, {(S)-1-[(2S,4R)-4-Biphenyl-4-yl-2-((S)-(1R,2S)-1-cyclopropanesulfonylaminocarbonyl-2-vinyl-cyclopropylcarbamoyl)-4-methoxy-pyrrolidine-1-carbonyl]-3-methyl-butyl}-carbamic acid tert-butyl ester], in assay [1] (setting [3]), the concentration for half-maximal inhibition (IC50) lay in the range of 1 to 50 nM. Also, in assay [2] (setting [4]), the EC50 fell in the range of 50 to 500 nM.

On to `C=C[C@@H]1C[C@]1(NC(=O)[C@@H]1C[C@@](OC)(c2ccc(-c3ccccc3)cc2)CN1C(=O)[C@H](Cc1ccc(C(C)(C)C)cc1)NC(=O)OC(C)(C)C)C(=O)NS(=O)(=O)C1CC1` [Cmpd 211], for which the IC50 in assay [1] (numeric cells of Table 2) amounted to 1600 nM.

As a reminder, the IC50 is the midpoint of a concentration-inhibition curve. Usually EC50 stands for the concentration that produces a half-maximal response.

The values above are taken from US7888464B2, “Hepatitis C virus inhibitors” (Bristol-Myers Squibb Company, priority 2006, dated 2011).
